Where only a bound is given, the exact number is not on record here.

Here are results for 37 compounds from US11851446B2, “Probes for imaging Huntingtin protein” (CHDI Foundation, Inc., priority 2014, dated 2023).

The target in this assay is T1, Q46 protein aggregates (Homo sapiens, UniProt P42858, INS38QQQQQQQQQQQQQQQQQQQQQQQQQ).
T1 construct: fused on or other part: GST at the N-terminus, cut off by thrombin before the test to start aggregation
As to the kind of experiment: Q46 Radioligand Binding Assay (RBA). To be noted: displacement of 10 nM [3H3]MK-3328 from 5 μM aggregated Q46 protein, 60 minutes at 37° C. As to the method:
Q46 Radioligand Binding Assay
For radioligand binding assays (RBA) GST-Q46 protein was generated based on a previous publication (Scherzinger et al. Cell, Vol. 90, 549-558, Aug. 8, 1997). For experiments 33 μM GST-Q46 was incubated with 150 μg/mL thrombin in assay buffer (150 mM NaCl, 50 mM Tris pH 8.0) and 2 mM CaCl2 for 16 hours at 37° C. Aggregated Q46 was pelleted by centrifugation for 5 minutes at 13,000 rpm in a bench top centrifuge and re-dissolved in the same volume of assay buffer. Test compounds were prepared by titration in DMSO at 11 concentrations from 33 μM to 1 nM. For the RBA, Q46 protein aggregates and test compounds were pre-incubated in assay buffer for 20 minutes at room temperature, in 140 μL/well in a 96-well plate (pp, round bottom). Then, ligand was added in 10 μL/well and incubated for 60 minutes at 37° C. Final assay concentrations were […] test compound, 5 μM Q46 protein (equivalent monomer concentration) and 10 nM ligand [^3H3]MK-3328 (Harrision et al., ACS Med. Chem. Lett., 2 (2011), pp 498-502). Samples were transferred onto GF/B filter plates and washed 2× with 200 μL PBS using a Filtermate Harvester. After drying filter plates for 1 hour at 37° C., the back of the plates was sealed with foil and 30 μl/well scintillation fluid (Packard MicroScint 40) was added, incubated for […] 15 minutes in the dark and counted in a TopCount reader. For analysis, replicate data from independent assay plates were normalized towards 0% and 100% inhibition using control wells of vehicle (0% inhibition) and 3 μM unlabelled MK-3328 (100% inhibition). IC50 values were determined with a sigmoidal inhibition model with four variables (top, bottom, slope, IC50) in a global fit using the normalized replicate data.

T1 sequence (P42858 with tags, fused parts or gaps with the stated changes): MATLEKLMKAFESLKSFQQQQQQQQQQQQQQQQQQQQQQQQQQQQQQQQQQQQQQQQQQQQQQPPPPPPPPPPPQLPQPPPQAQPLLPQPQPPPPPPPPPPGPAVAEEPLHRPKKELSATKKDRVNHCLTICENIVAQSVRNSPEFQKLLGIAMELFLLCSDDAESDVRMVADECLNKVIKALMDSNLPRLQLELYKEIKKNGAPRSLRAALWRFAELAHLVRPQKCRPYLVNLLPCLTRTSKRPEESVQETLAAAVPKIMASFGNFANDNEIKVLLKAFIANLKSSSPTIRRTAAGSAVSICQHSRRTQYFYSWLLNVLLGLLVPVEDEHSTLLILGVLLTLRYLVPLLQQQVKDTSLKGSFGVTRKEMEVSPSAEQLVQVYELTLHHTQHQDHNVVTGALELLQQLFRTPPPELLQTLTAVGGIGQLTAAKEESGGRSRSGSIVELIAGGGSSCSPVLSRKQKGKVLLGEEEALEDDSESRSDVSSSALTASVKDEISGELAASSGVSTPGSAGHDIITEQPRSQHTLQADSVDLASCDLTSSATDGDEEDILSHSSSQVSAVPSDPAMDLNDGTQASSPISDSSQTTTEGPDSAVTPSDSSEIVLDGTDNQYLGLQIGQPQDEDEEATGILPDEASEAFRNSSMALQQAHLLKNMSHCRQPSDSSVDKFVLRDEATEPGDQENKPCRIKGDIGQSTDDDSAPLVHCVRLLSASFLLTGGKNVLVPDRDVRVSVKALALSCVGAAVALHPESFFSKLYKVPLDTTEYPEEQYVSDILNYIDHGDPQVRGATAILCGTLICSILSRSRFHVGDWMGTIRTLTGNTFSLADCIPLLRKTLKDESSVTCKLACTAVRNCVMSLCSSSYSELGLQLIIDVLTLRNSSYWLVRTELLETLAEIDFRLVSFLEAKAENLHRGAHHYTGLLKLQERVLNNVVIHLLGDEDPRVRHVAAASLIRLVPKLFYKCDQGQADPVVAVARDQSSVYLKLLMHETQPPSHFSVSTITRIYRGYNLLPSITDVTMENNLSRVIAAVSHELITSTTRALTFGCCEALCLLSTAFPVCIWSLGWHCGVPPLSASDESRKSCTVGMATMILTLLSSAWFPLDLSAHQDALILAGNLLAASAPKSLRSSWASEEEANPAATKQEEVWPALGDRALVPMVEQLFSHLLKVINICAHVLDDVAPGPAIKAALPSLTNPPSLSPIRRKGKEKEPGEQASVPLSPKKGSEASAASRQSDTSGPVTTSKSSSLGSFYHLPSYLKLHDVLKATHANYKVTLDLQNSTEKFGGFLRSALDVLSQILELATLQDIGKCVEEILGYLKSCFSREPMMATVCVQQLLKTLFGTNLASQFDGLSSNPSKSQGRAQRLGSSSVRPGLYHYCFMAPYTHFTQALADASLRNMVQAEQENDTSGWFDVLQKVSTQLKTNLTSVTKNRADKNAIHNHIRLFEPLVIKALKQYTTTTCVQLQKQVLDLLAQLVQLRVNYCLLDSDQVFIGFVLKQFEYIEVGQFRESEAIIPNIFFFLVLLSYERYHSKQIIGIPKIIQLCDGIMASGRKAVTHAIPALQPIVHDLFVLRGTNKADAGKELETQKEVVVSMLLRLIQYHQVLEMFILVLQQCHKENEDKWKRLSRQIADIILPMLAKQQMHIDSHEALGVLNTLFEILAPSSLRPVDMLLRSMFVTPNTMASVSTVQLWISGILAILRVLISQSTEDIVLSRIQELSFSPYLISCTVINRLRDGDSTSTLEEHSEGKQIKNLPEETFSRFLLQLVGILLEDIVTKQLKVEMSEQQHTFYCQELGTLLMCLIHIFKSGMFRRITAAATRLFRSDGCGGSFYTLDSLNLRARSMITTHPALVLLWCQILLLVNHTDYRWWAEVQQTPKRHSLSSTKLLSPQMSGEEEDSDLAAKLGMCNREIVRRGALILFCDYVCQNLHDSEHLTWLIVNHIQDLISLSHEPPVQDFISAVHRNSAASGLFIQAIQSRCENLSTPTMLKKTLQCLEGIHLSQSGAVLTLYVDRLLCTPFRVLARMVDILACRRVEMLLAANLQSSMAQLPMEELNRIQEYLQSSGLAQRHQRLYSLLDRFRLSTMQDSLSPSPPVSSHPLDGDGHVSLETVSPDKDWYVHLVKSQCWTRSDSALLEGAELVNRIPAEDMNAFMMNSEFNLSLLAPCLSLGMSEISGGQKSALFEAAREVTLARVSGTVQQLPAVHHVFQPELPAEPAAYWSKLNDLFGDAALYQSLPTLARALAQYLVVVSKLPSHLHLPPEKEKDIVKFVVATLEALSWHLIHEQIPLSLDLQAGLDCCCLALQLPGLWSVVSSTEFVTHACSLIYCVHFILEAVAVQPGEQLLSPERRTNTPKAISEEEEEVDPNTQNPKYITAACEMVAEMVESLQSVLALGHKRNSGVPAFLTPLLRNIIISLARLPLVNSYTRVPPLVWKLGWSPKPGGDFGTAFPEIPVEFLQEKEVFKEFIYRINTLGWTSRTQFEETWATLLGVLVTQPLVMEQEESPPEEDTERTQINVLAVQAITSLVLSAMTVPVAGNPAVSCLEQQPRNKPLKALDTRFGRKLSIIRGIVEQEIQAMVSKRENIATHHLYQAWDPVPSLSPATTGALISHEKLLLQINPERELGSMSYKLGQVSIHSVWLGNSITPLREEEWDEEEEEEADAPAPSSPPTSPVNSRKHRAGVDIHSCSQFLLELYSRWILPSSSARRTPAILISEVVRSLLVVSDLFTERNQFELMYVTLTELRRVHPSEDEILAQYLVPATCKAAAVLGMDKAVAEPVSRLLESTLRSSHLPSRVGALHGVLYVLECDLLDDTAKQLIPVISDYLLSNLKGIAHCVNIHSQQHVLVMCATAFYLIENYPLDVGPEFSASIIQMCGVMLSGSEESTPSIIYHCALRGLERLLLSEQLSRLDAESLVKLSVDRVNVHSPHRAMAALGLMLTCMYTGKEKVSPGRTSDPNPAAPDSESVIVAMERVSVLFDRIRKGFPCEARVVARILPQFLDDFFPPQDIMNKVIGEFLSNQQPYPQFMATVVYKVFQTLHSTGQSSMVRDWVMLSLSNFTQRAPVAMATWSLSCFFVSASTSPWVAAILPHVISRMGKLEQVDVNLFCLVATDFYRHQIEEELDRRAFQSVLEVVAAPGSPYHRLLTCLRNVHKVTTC

The IC50 is the midpoint of a concentration-inhibition curve. A low value points to greater potency. With `CNc1c(-c2ccc3occc3c2)nc2cc(C#N)ccn12` [2-(1-benzofuran-5-yl)-3-(methylamino)imidazo[1,2-a]pyridine-7-carbonitrile], the IC50 was in the range of 100 to 500 nM. To `CNc1c(-c2ccc3c(c2)OCCO3)nc2cc(C#N)ccn12` [2-(2,3-dihydro-1,4-benzodioxin-6-yl)-3-(methylamino)imidazo[1,2-a]pyridine-7-carbonitrile] belongs 100 to 500 nM. Under `CNc1c(-c2ccc(C#N)cc2)nc2cc(C#N)ccn12` [2-(4-cyanophenyl)-3-(methylamino)imidazo[1,2-a]pyridine-7-carbonitrile] stands below 100 nM; under `CNc1c(-c2ccc(OC)cc2)nc2cc(C#N)ccn12` [2-(4-methoxyphenyl)-3-(methylamino)imidazo[1,2-a]pyridine-7-carbonitrile], below 100 nM. On to `CNc1c(-c2ccc(OCC3=CSC4=NCCN34)cc2)nc2cc(C#N)ccn12` [2-(4-{5H,6H-imidazo[2,1-b][1,3]thiazol-3-ylmethoxy}phenyl)-3-(methylamino)imidazo[1,2-a]pyridine-7-carbonitrile], for which the IC50 was below 100 nM.

The compound `CNc1c(-c2ccc(NCc3ccc(OC)cn3)cc2)nc2cc(C#N)ccn12` [2-(4-{[(5-methoxypyridin-2-yl)methyl]amino}phenyl)-3-(methylamino)imidazo[1,2-a]pyridine-7-carbonitrile] yielded an IC50 below 100 nM.

On to `CNc1c(-c2cc3cc(Br)ccc3o2)nc2cc(C#N)ccn12` [2-(5-bromo-1-benzofuran-2-yl)-3-(methylamino)imidazo[1,2-a]pyridine-7-carbonitrile], for which the IC50 was below 100 nM. The compound `CNc1c(-c2ccc(Br)o2)nc2cc(C#N)ccn12` [2-(5-bromofuran-2-yl)-3-(methylamino)imidazo[1,2-a]pyridine-7-carbonitrile] displayed an IC50 of 100 to 500 nM. To `CNc1c(-c2cc3cc(F)ccc3o2)nc2cc(C#N)ccn12` [2-(5-fluoro-1-benzofuran-2-yl)-3-(methylamino)imidazo[1,2-a]pyridine-7-carbonitrile] belongs below 100 nM; to `CNc1c(-c2cc3cc(F)ccc3o2)nc2ccccn12` [2-(5-fluoro-1-benzofuran-2-yl)-N-methylimidazo[1,2-a]pyridin-3-amine], above 500 nM; to `CNc1c(-c2cc3cc(O)ccc3o2)nc2cc(C#N)ccn12` [2-(5-hydroxy-1-benzofuran-2-yl)-3-(methylamino)imidazo[1,2-a]pyridine-7-carbonitrile], below 100 nM. `CNc1c(-c2nc3cc(OC)ccc3o2)nc2cc(C#N)ccn12` [2-(5-methoxy-1,3-benzoxazol-2-yl)-3-(methylamino)imidazo[1,2-a]pyridine-7-carbonitrile] showed an IC50 below 100 nM. To `COCc1c(-c2cc3cc(OC)ccc3o2)nc2cc(C#N)ccn12` [2-(5-methoxy-1-benzofuran-2-yl)-3-(methoxymethyl)imidazo[1,2-a]pyridine-7-carbonitrile] belongs below 100 nM.

In turn, `CNc1c(-c2cc3cc(OC)ccc3o2)nc2ccc(C#N)cn12` [2-(5-methoxy-1-benzofuran-2-yl)-3-(methylamino)imidazo[1,2-a]pyridine-6-carbonitrile] came in with an IC50 below 100 nM. To `CNc1c(-c2cc3cc(OC)ccc3o2)nc2cc(C#N)ccn12` [2-(5-methoxy-1-benzofuran-2-yl)-3-(methylamino)imidazo[1,2-a]pyridine-7-carbonitrile] belongs below 100 nM; to `COCCNc1c(-c2cc3cc(OC)ccc3o2)nc2cc(C#N)ccn12` [2-(5-methoxy-1-benzofuran-2-yl)-3-[(2-methoxyethyl)amino]imidazo[1,2-a]pyridine-7-carbonitrile], below 100 nM.

Compound `COCCNc1c(-c2cc3cc(OC)ccc3o2)nc2ccccn12` [2-(5-methoxy-1-benzofuran-2-yl)-N-(2-methoxyethyl)imidazo[1,2-a]pyridin-3-amine] had an IC50 of 100 to 500 nM. To `CNc1c(-c2cc3cc(OC)ccc3o2)nc2cc(C#C[Si](C)(C)C)ccn12` [2-(5-methoxy-1-benzofuran-2-yl)-N-methyl-7-[2-(trimethylsilyl)ethynyl]imidazo[1,2-a]pyridin-3-amine] belongs below 100 nM; to `CNc1c(-c2cc3cc(OC)ccc3o2)nc2ccccn12` [2-(5-methoxy-1-benzofuran-2-yl)-N-methylimidazo[1,2-a]pyridin-3-amine], 100 to 500 nM; to `COc1ccc2oc(-c3cn4ccc(C#N)cc4n3)cc2c1` [2-(5-methoxy-1-benzofuran-2-yl)imidazo[1,2-a]pyridine-7-carbonitrile], below 100 nM.

Turning to `CNc1c(-c2nc3cc(OC)ccc3n2C)nc2cc(C#N)ccn12` [2-(5-methoxy-1-methyl-1H-1,3-benzodiazol-2-yl)-3-(methylamino)imidazo[1,2-a]pyridine-7-carbonitrile], the IC50 was below 100 nM. `CNc1c(-c2nc3cc(OC)ccc3[nH]2)nc2cc(C#N)ccn12` [2-(5-methoxy-1H-1,3-benzodiazol-2-yl)-3-(methylamino)imidazo[1,2-a]pyridine-7-carbonitrile]: the concentration for half-maximal inhibition (IC50) was below 100 nM.

For `CNc1c(-c2nc3ccc(OC)cc3s2)nc2cc(C#N)ccn12` [2-(6-methoxy-1,3-benzothiazol-2-yl)-3-(methylamino)imidazo[1,2-a]pyridine-7-carbonitrile], the IC50 was below 100 nM. To `CNc1c(-c2cc3ccc(OC)cc3o2)nc2cc(C#N)ccn12` [2-(6-methoxy-1-benzofuran-2-yl)-3-(methylamino)imidazo[1,2-a]pyridine-7-carbonitrile] belongs below 100 nM; to `CNc1c(-c2nc3ccc(OC)cc3n2C)nc2cc(C#N)ccn12` [2-(6-methoxy-1-methyl-1H-1,3-benzodiazol-2-yl)-3-(methylamino)imidazo[1,2-a]pyridine-7-carbonitrile], below 100 nM; to `CNc1c(-c2cc3cc(O)ccc3o2)nc2ccc(F)cn12` [2-[6-fluoro-3-(methylamino)imidazo[1,2-a]pyridin-2-yl]-1-benzofuran-5-ol], 100 to 500 nM.

Turning to `CNc1c(-c2cc3cc(O)ccc3o2)nc2cc(F)ccn12` [2-[7-fluoro-3-(methylamino)imidazo[1,2-a]pyridin-2-yl]-1-benzofuran-5-ol], the IC50 is below 100 nM.

As for `CNc1c(/C=C/c2ccc(OC)cc2)nc2cc(C#N)ccn12` [2-[(E)-2-(4-methoxyphenyl)ethenyl]-3-(methylamino)imidazo[1,2-a]pyridine-7-carbonitrile], the IC50 is below 100 nM. The compound `OCCNc1c(-c2cc3cc(O)ccc3o2)nc2ccccn12` [2-{3-[(2-hydroxyethyl)amino]imidazo[1,2-a]pyridin-2-yl}-1-benzofuran-5-ol] had an IC50 of 100 to 500 nM. To `CNc1c(-c2cccc(OCc3cnc(OC)cn3)c2)nc2cc(C#N)ccn12` [2-{3-[(5-methoxypyrazin-2-yl)methoxy]phenyl}-3-(methylamino)imidazo[1,2-a]pyridine-7-carbonitrile] belongs below 100 nM; to `CNc1c(-c2ccc(OCc3cnc(OC)cn3)cc2)nc2cc(C#N)ccn12` [2-{4-[(5-methoxypyrazin-2-yl)methoxy]phenyl}-3-(methylamino)imidazo[1,2-a]pyridine-7-carbonitrile], below 100 nM.

In turn, `CNc1c(-c2cc3cc(OCCN(C)C)ccc3o2)nc2cc(C#N)ccn12` [2-{5-[2-(dimethylamino)ethoxy]-1-benzofuran-2-yl}-3-(methylamino)imidazo[1,2-a]pyridine-7-carbonitrile] showed an IC50 of 100 to 500 nM. `CNc1c(-c2ccc(OCc3cnc(OC)cn3)cn2)nc2cc(C#N)ccn12` [2-{5-[(5-methoxypyrazin-2-yl)methoxy]pyridin-2-yl}-3-(methylamino)imidazo[1,2-a]pyridine-7-carbonitrile]: the IC50 was below 100 nM. As for `CNc1c(-c2cnc(OCc3ccc(OC)cn3)cn2)nc2cc(C#N)ccn12` [2-{5-[(5-methoxypyridin-2-yl)methoxy]pyrazin-2-yl}-3-(methylamino)imidazo[1,2-a]pyridine-7-carbonitrile], the IC50 was below 100 nM.

`CNc1c(-c2ccc(OCc3cnc(OC)cn3)nc2)nc2cc(C#N)ccn12` [2-{6-[(5-methoxypyrazin-2-yl)methoxy]pyridin-3-yl}-3-(methylamino)imidazo[1,2-a]pyridine-7-carbonitrile] came in with an IC50 below 100 nM. `CNc1c(-c2cn3c(n2)sc2cc(OC)ccc23)nc2cc(C#N)ccn12` [2-{10-methoxy-7-thia-2,5-diazatricyclo[6.4.0.0^2,6]dodeca-1(12),3,5,8,10-pentaen-4-yl}-3-(methylamino)imidazo[1,2-a]pyridine-7-carbonitrile] had an IC50 below 100 nM.

In turn, `CNc1c(-c2cn3c(n2)sc2ccc(OC)cc23)nc2cc(C#N)ccn12` [2-{11-methoxy-7-thia-2,5-diazatricyclo[6.4.0.0^2,6]dodeca-1(12),3,5,8,10-pentaen-4-yl}-3-(methylamino)imidazo[1,2-a]pyridine-7-carbonitrile] gave an IC50 below 100 nM.
